# Laboratory results: publication PMC7596181 (Frontiers in Immunology, 2020)
# Key:
# [1] = target: T1, human TLR4 (Homo sapiens, UniProt O00206+Q9Y6Y9); test: SEAP assay, agonist dose response in human TLR4 HEK-Blue reporter cells; format: cell-based; set-up: host or cells: HEK-Blue (HEK293-derived) reporter cells; conditions: for agonist profile / EC50: human TLR4 HEK-Blue reporter cells; for EC50: read-out: EC50 for stimulation
# Method: (§1) Human and mouse HEK-Blue reporter cells express human or mouse CD14, MD2, and TLR4 and secreted embryonic alkaline phosphatase (SEAP) under control of a promoter with binding sites for NFκB and AP-1 transcription factors (InvivoGen cat. nos. hkb-htlr4 and hkb-mtlr4). Cells were cultured as directed by the supplier, with the exception that Glutamax (ThermoFisher cat. no. 10569010) was used in place of L-glutamine, and TrypLE Express (ThermoFisher cat. no. 12605010) was used to release adherent cells for each passage. BALB/c mouse RAW264.7 and human THP-1 cells (ATCC® cat. nos. TIB-71 and TIB-202) were cultured in DMEM (4.5 g/L D-Glucose with 2 mM L-glutamine, 1 mM sodium pyruvate, 100 U/ml penicillin and 100 μg/ml streptomycin) supplemented with 10% heat-inactivated FBS. THP-1 cells were exposed to phorbol-12-myristate-13-acetate (PMA, InvivoGen cat no. tlrl-pma), 5 ng/ml, for 48 h prior to treatment with TLR4 agonists. Bone marrow-derived dendritic cells (BMDCs) were generated using C57BL/6 mouse femurs following the exact method published by Lutz et al. ([29]) except that 5 rather than 20 ng/ml recombinant GM-CSF was used to differentiate the DC. Human peripheral blood […] (PBMCs) were prepared from venous blood of healthy volunteers that had been collected using sodium citrate as anti-coagulant, 20 ml of which was mixed with 15 ml calcium- and magnesium-free Hank’s Balanced Saline Solution (HBSS) and then laid over 6 ml Histopaque®-1077 (1.077 g/ml, Sigma-Aldrich cat no. 10771) for density gradient centrifugation. The buffy coat layer was collected by pipette, washed once in HBSS, once in serum-free RPMI-1640, and then the PBMCs were resuspended in RPMI-1640 supplemented with 100 U/ml penicillin, 100 µg/ml streptomycin, 1 mM Na-Pyruvate, 2 mM L-glutamine, 50 μM βME and 10% heat-inactivated, male AB human serum for culture.
# (§2) SEAP assays were performed to evaluate the extent to which TLR4 signaling was activated in HEK-Blue reporter cells expressing mouse or human receptors (CD14, MD2 and TLR4). Reporter cells were harvested when 70–80% confluent and plated in 96-well, flat-bottom microtiter plates either 1 h, one day or two days (5 × 10^4, 4 × 10^4 or 2 × 10^4 cells/well, respectively) before addition of TLR4 agonists for 18–24 h. Culture supernatants were transferred to U-bottom microtiter plates, centrifuged and transferred again to microtiter plates to ensure reporter cells were not present. The culture supernatants were added to QUANTI-BLUE substrate following instructions provided by the manufacturer (InvivoGen cat. nos. rep-qbl or rep-qbs) and incubated at 37°C in a tissue culture incubator. At successive intervals beginning 10 min after mixing the supernatants and substrate, the plates were placed in an Emax plate reader (Molecular Devices LLC) and optical density was measured at visible light wavelength […] (OD650). The shortest incubations at which dose response curve fits produced maximal R^2 ‘goodness of fit’ values, as determined by GraphPad Prism software, were used for analysis.
# (§3) Pharmacological profiles of the TLR4 reagents were generated by performing dose response curves in one of four formats. 1) Agonist potency and efficacy (EC50 and height of dose plateau, respectively) were measured by diluting TLR4 reagents successively in complete culture medium [DMEM or RPMI supplemented with fetal bovine serum (FBS) or RPMI supplemented with human serum, depending on cell-type]. Half-log step dilutions were performed in 96-well, U-bottom microtiter plates using a multichannel pipette to transfer and mix the suspensions, with fresh tips used for each dilution step. One-tenth (20 μl) volumes from wells of the dilution plate were then transferred to wells containing cells that had been plated in nine-tenth volumes (180 μl) of culture medium. […]
# [2] = target: T2, mouse TLR4 (Mus musculus, UniProt Q9JHF9+Q9QUK6); test: SEAP assay, agonist dose response in mouse TLR4 HEK-Blue reporter cells; format: cell-based; set-up: host or cells: HEK-Blue (HEK293-derived) reporter cells; conditions: for agonist profile: mouse TLR4 HEK-Blue reporter cells
# T2 sequence (Q9QUK6 26-835): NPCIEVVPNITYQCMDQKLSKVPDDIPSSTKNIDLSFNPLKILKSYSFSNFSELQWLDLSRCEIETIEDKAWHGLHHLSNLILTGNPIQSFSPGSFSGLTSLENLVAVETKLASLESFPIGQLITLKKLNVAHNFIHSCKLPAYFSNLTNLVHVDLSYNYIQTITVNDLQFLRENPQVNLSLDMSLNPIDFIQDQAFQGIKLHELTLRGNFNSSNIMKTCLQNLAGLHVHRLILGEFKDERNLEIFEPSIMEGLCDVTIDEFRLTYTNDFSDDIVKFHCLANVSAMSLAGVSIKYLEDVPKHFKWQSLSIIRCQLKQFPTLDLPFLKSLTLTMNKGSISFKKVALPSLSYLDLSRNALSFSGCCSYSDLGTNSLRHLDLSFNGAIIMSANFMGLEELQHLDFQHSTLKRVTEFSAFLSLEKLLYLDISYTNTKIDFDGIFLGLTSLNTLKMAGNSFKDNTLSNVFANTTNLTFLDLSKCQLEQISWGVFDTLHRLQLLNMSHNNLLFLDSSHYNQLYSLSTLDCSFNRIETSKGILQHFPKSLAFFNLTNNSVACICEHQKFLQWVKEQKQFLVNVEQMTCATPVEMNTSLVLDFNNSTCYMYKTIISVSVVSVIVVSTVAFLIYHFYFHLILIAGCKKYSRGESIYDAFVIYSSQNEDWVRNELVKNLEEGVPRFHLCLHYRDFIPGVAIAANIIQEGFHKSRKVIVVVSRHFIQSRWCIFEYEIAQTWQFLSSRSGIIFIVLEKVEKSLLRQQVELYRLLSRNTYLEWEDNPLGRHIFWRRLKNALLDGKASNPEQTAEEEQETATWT
# T2 sequence (Q9JHF9 19-160): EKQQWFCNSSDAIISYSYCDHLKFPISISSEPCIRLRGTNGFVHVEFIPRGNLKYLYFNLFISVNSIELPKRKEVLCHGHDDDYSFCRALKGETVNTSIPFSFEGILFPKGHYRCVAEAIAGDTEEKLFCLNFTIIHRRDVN
# Method: as §1, §2, §3
# [3] = target: T1, human TLR4; test: Inhibition curves (IC50 format): antagonist diluted in a fixed concentration of reference agonist, human TLR4 HEK-Blue SEAP; format: cell-based; set-up: host or cells: HEK-Blue (HEK293-derived) reporter cells; conditions: for inhibition of PHAD stimulation: fixed PHAD 1 μM, 22 h
# Method: as §2
# (§4) Pharmacological profiles of the TLR4 reagents were generated by performing dose response curves in one of four formats. 1) Agonist potency and efficacy (EC50 and height of dose plateau, respectively) were measured by diluting TLR4 reagents successively in complete culture medium [DMEM or RPMI supplemented with fetal bovine serum (FBS) or RPMI supplemented with human serum, depending on cell-type]. Half-log step dilutions were performed in 96-well, U-bottom microtiter plates using a multichannel pipette to transfer and mix the suspensions, with fresh tips used for each dilution step. One-tenth (20 μl) volumes from wells of the dilution plate were then transferred to wells containing cells that had been plated in nine-tenth volumes (180 μl) of culture medium. 2) Mixed agonist–antagonist potency and efficacy were measured by mixing a TLR4 agonist with a candidate antagonist at a fixed ratio and then performing half-log step dilutions before treating HEK reporter cells. Analysis of values obtained from SEAP assays of culture supernatants was then performed as described for preparations containing agonist alone, above. 3) Competitive vs allosteric or non-competitive antagonist type was evaluated by diluting a reference agonist within a fixed concentration of a candidate inhibitor in half-log steps, treating HEK reporter cells, performing SEAP assays and then analyzing the data as described for agonist assays, above. Competitive antagonists are characterized by values that reach the same dose plateau as for a reference, full agonist, while shifting potency to higher EC50 values. […] 4) Inhibitory potency (IC50) was measured by diluting antagonists within a fixed concentration of a reference agonist, treating HEK reporter cells and performing SEAP assays as described.
# [4] = target: T1, human TLR4; set-up: method as in PMID 1918061; conditions: cited from earlier work
# [5] = target: T2, mouse TLR4; set-up: method as in PMID 1918061; conditions: cited from earlier work
# [6] = target: T1, human TLR4; test: Competitive vs non-competitive antagonist type: agonist diluted in a fixed concentration of inhibitor, human TLR4 HEK-Blue SEAP; format: cell-based; set-up: host or cells: HEK-Blue (HEK293-derived) reporter cells; conditions: fixed ML3 3 μM, ML4A 3 μM or Lipid IVa 0.1 μM; agonist PHAD or 3D-6A-PHAD diluted from 10 μM
# Method: as §2
# Pharmacological profiles of the TLR4 reagents were generated by performing dose response curves in one of four formats. 1) Agonist potency and efficacy (EC50 and height of dose plateau, respectively) were measured by diluting TLR4 reagents successively in complete culture medium [DMEM or RPMI supplemented with fetal bovine serum (FBS) or RPMI supplemented with human serum, depending on cell-type]. […] 2) Mixed agonist–antagonist potency and efficacy were measured by mixing a TLR4 agonist with a candidate antagonist at a fixed ratio and then performing half-log step dilutions before treating HEK reporter cells. […] 4) Inhibitory potency (IC50) was measured by diluting antagonists within a fixed concentration of a reference agonist, treating HEK reporter cells and performing SEAP assays as described.
# [7] = target: T1, human TLR4; test: Mixed agonist-antagonist dose curves at fixed ratio, human TLR4 HEK-Blue SEAP; format: cell-based; set-up: host or cells: HEK-Blue (HEK293-derived) reporter cells
# Method: as §2, §4
# T1 sequence (O00206 24-839): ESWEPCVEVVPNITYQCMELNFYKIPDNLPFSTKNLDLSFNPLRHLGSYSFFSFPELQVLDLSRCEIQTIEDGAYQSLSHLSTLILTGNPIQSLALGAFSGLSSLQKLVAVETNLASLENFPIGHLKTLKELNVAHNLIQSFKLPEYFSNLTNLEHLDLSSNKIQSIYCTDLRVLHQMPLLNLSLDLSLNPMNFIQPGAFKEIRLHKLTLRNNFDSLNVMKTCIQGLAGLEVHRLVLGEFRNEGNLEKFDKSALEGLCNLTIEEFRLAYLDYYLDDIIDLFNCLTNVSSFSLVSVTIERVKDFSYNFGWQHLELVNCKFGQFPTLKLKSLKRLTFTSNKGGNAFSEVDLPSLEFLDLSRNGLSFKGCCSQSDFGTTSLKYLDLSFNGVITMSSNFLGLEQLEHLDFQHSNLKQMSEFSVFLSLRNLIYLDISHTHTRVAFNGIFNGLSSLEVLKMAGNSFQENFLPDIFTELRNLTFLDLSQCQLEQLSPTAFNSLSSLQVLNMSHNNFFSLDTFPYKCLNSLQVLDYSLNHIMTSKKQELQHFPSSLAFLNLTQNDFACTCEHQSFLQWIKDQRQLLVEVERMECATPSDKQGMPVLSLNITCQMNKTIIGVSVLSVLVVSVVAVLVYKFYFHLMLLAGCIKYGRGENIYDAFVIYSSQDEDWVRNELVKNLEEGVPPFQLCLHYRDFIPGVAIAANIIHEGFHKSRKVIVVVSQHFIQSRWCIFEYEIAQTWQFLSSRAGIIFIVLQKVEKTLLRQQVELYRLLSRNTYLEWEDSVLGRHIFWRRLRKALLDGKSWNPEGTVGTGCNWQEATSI
# T1 sequence (Q9Y6Y9 17-160 limits assumed): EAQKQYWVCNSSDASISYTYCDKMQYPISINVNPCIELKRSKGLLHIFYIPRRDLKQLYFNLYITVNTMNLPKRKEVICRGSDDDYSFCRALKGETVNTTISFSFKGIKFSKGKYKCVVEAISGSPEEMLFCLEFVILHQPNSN
SMILES,agonist profile [1],EC50 [1],agonist profile [2],inhibition of PHAD stimulation [3],other results
"CCCCCCCCCCCCCC(=O)O[C@H](CCCCCCCCCCC)CC(=O)N[C@H]1[C@H](OC[C@H]2OC(O)[C@H](NC(=O)C[C@H](O)CCCCCCCCCCC)[C@@H](OC(=O)C[C@H](O)CCCCCCCCCCC)[C@@H]2O)O[C@H](CO)[C@@H](OP(=O)(O)O)[C@@H]1OC(=O)C[C@@H](CCCCCCCCCCC)OC(=O)CCCCCCCCCCCCC (stereo partly shown) [PHAD, phosphorylated hexa-acyl disaccharide, reference compound]",weak yet full agonist of both mouse and human TLR4,0.03 µM,weak yet full agonist of both mouse and human TLR4,,
CCCCCCCCCCCCCCCC(=O)OC(CCCCCCCCCCC)CC(=O)NC1C(O)OC(COC2OC(CO)C(OP(=O)(O)O)C(OC(=O)CC(CCCCCCCCCCC)OC(=O)CCCCCCCCCCCCC)C2NC(=O)CC(CCCCCCCCCCC)OC(=O)CCCCCCCCCCC)C(O)C1O (stereo not shown) [ML6],weaker agonists of human TLR4 than of mouse TLR4,,,only ML3 and ML4A showed inhibitory potential,
"CCCCCCCCCCCCCC(=O)OC(CCCCCCCCCCC)CC(=O)NC1C(O)OC(COC2OC(CO)C(OP(=O)(O)O)C(OC(=O)CC(CCCCCCCCCCC)OC(=O)CCCCCCCCCCCCC)C2NC(=O)CC(CCCCCCCCCCC)OC(=O)CCCCCCCCCCCCC)C(O)C1O (stereo not shown) [3D-6A-PHAD, reference compound]",,0.3 µM,,,
"CCCCCCCCCCCCCC(=O)O[C@H](CCCCCCCCCCC)CC(=O)O[C@@H]1[C@@H](NC(=O)C[C@@H](CCCCCCCCCCC)OC(=O)CCCCCCCCCCC)[C@H](OC[C@H]2O[C@H](OP(=O)(O)O)[C@H](NC(=O)C[C@H](O)CCCCCCCCCCC)[C@@H](OC(=O)C[C@H](O)CCCCCCCCCCC)[C@@H]2O)O[C@H](CO)[C@H]1OP(=O)(O)O [Lipid A, reference compound]",most potent of the agonists tested,,most potent of the agonists tested,,"ED50 (95% CI) ([1]; human TLR4 reporter cells, stimulatory curve fit, Figure 3C): 1.0 (0.8-1.1) ng/mL; ED50 (95% CI) ([2]; mouse Tlr4 reporter cells, stimulatory curve fit, Figure 3C): 0.7 (0.5-0.9) ng/mL"
"CCCCCCCCCCC[C@@H](O)CC(=O)N[C@H]1[C@H](OC[C@H]2O[C@H](OP(=O)(O)O)[C@H](NC(=O)C[C@H](O)CCCCCCCCCCC)[C@@H](OC(=O)C[C@H](O)CCCCCCCCCCC)[C@@H]2O)O[C@H](CO)[C@@H](OP(=O)(O)O)[C@@H]1OC(=O)C[C@H](O)CCCCCCCCCCC [Lipid IVa, reference compound]",,,,,"activity on human TLR4 [4]: competitive antagonist of human TLR4; activity on mouse TLR4 [5]: agonist of mouse TLR4; inhibition of 3D-6A-PHAD stimulation ([3]; fixed 3D-6A-PHAD 300 nM): functioned as inhibitors; IC50 ([3]; fixed PHAD 30 nM, 95% CI given): 0.00019 µM; antagonist type [6]: competitive antagonist curve; effect on agonist dose curve in fixed-ratio mixture ([7]; mixed with PHAD at 1:60 or 1:20 antagonist:agonist): clearly flatted; effect on agonist dose curve in fixed-ratio mixture ([7]; mixed with PHAD at 1:180 antagonist:agonist): trending to a flattened curve"
CCCCCCCCCCCCCC(=O)OC(CCCCCCCCCCC)CC(=O)OC1C(NC(=O)CC(CCCCCCCCCCC)OC(=O)CCCCCCCCCCC)C(OCC2OC(O)C(NC(=O)CC(O)CCCCCCCCCCC)C(O)C2O)OC(CO)C1OP(=O)(O)O (stereo not shown) [ML5A],weaker agonists of human TLR4 than of mouse TLR4,,,only ML3 and ML4A showed inhibitory potential,
